Data set [1] deals with albumin (HSA, BSA, FBS). The experiment in a line: Biotin pulldown of albumin. The data set is classed as binding, human, bovine. The conditions noted are these: 1 mM biotinylated peptide, 0.03 mM HSA, BSA or FBS, 2 h 4 °C, streptavidin resin. As for the experimental part:
For immunoprecipitation (IP), 300 µg of lysate was mixed with 5 µg of human anti-PD-1 (#AF1086, R&D) or mouse anti-PD-L1 (#PA5-20343, Invitrogen-Thermo Fisher Scientific) at 4 °C for 2 h followed by 30 min incubation with 20 µL of Pierce™ Protein A/G Magnetic Beads (ThermoFisher Scientific; catalog #88802) at room temperature followed by Western blot to detect the interacted proteins. In the biotin pulldown procedure, 1 mM biotinylated peptides were incubated with 0.03 mM of albumin (BSA, HSA, the equivalent amount FBS) for 2 h at 4 °C followed by incubating with 50 µL Streptavidin resin (Genescript, Piscataway, NJ, USA) for 1 hr at room temperature, followed by SDS-PAGE to detect the bound albumin.

The conditions of data set [2]: mouse, in vivo.
In data set [3] the test system is cells.
Data set [4] in a line: physchem. The conditions noted are these: aqueous buffer.
The target of data set [5] is T1, human serum albumin (human, UniProt P02768 25-609).
T1 construct: human serum albumin (HSA); also called HSA
The experiment in a line: pull-down; 1 mM biotinylated peptide with 0.03 mM albumin (HSA or BSA) for 2 h at 4 °C, then Streptavidin resin for 1 h at room temperature; bound albumin detected by SDS-PAGE. The conditions noted are these: both partners purified.

Data set [6] deals with T2, bovine serum albumin (bovine, UniProt P02769 25-607).
T2 construct: bovine serum albumin, used as BSA and as the albumin in an equivalent amount of FBS; also called BSA; albumin of fetal bovine serum (FBS); source: also as the albumin in fetal bovine serum (FBS)
T2 sequence (P02769 25-607): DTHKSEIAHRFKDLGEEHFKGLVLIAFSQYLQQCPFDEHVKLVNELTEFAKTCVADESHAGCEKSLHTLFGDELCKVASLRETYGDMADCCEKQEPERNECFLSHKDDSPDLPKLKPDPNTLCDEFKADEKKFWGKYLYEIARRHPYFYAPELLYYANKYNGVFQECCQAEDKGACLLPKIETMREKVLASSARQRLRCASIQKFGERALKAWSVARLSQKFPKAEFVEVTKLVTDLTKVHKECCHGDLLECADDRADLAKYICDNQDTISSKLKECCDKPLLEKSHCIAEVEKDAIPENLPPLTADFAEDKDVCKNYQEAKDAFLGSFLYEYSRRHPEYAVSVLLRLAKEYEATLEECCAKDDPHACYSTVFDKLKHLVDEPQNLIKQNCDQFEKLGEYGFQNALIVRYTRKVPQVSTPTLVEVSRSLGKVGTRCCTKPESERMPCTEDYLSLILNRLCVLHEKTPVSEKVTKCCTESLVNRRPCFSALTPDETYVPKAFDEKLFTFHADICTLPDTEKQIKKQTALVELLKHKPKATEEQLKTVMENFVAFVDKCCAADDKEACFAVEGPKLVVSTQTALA
The data set is described as above. The conditions noted are these: both partners purified.

Ends that are not written are not given here. Peptide text beside a SMILES is read from it. * marks the point of attachment. Biotin = O=C1N[C@H]2[C@H](CS[C@H]2CCCCC(=O)*)N1; Ahx = NCCCCCC(=O)O

On to `CC[C@H](C)[C@H](NC(=O)[C@H](CCCNC(=N)N)NC(=O)[C@H](CC(C)C)NC(=O)[C@H](CC(N)=O)NC(=O)[C@H](CO)NC(=O)[C@@H](NC(=O)[C@@H](NC(=O)[C@H](CC(N)=O)NC(=O)[C@H](Cc1ccccc1)NC(=O)[C@H](CC(C)C)NC(=O)[C@H](CCCCN)NC(=O)[C@H](CCC(=O)O)NC(=O)[C@H](CCC(=O)O)NC(=O)[C@H](CCCNC(=N)N)NC(=O)CCCCCNC(=O)[C@H](CCC(=O)O)NC(=O)[C@H](Cc1ccc(O)cc1)NC(=O)[C@H](CCC(=O)O)NC(=O)[C@H](CCCCN)NC(=O)[C@H](CCC(=O)O)NC(=O)[C@H](Cc1ccc(O)cc1)NC(=O)[C@H](CCC(=O)O)NC(=O)CCCCCNC(=O)CCCC[C@@H]1SC[C@@H]2NC(=O)N[C@@H]21)C(C)C)[C@@H](C)O)C(=O)N[C@@H](CC(N)=O)C(=O)N[C@H](C(N)=O)[C@@H](C)O` [Biotin-EYEKEYE-L7N], for which the “Binding to albumin (pulldown, SDS-PAGE)” value in data set [1] is “no binding”.
Consider `CC[C@H](C)[C@H](NC(=O)[C@H](CCCNC(=N)N)NC(=O)[C@H](CC(C)C)NC(=O)[C@H](CC(N)=O)NC(=O)[C@H](CO)NC(=O)[C@@H](NC(=O)[C@@H](NC(=O)[C@H](CC(N)=O)NC(=O)[C@H](Cc1ccccc1)NC(=O)[C@H](CC(C)C)NC(=O)[C@H](CCCCN)NC(=O)[C@H](CCC(=O)O)NC(=O)[C@H](CCC(=O)O)NC(=O)[C@H](CCCNC(=N)N)NC(=O)CCCCCNC(=O)CCCC[C@@H]1SC[C@@H]2NC(=O)N[C@@H]21)C(C)C)[C@@H](C)O)C(=O)N[C@@H](CC(N)=O)C(=O)N[C@H](C(N)=O)[C@@H](C)O` [Biotin-L7N] ({Biotin-Ahx}-REEKLFNVTSNLRINT-NH2), for which, in data set [1], the “Binding to albumin (pulldown, SDS-PAGE)” value is listed as “no binding”.
On to REEKLFNVTSNLRINT-NH2 [L7N], for which the “Immune reactions of mice” value in data set [2] was “adverse immune reactions”. The Toxicity to cells result in data set [3] is reported as “no significant toxicity”.
With REEKLFNVTSTLRINT-NH2 [L7], the solubility (in general, how much of the substance goes into solution per volume) in data set [4] is under 10 mg/mL.

B1: Biotin-PA-scramble (peptide)
peptide: EYEKEYETKLREIFVNLRTNSEN
modifications: biotin-ahx at the N-terminus; palmitic acid on the Lys side chain of EYEKEYE; ahx (6-aminohexanoic acid) between EYEKEYE and the peptide
notes: peptide tag that carries palmitic acid on its Lys; also called biotin–PA–scrambled peptide; PA-coupled scramble peptide; source: synthetic peptide (Fmoc chemistry); not shown: biotin, N-terminal, kept
As for B1, the binding result in data set [5] and in data set [6] was “binds” in each case.

Values taken from PMC11274521 (Cells, 2024).
